The conditions of series [1]: natural zinc, blood to brain across the BBB; cited from earlier work.
Series [2] relates to GFAP.
In series [3] the test system is CD206. Put plainly: CD206 expression (FIG. 5).
Series [4] relates to circulating leukocytes. The series is described as follows: Absolute number of circulating leukocytes (FIG. 3). The note with it: rodents.
The test system of series [5] is microglia/macrophages. The following applies: FIG. 7; LPS-lesioned rats.
Series [6] relates to microglia. The series is described as follows: Reactive oxygen species in microglia (FIG. 6).
In series [7] the test system is astroglia. The following applies: FIG. 2.

For `[Zn]` [zinc], in series [1], the “zinc in the blood taken up by brain tissues” value was 2-3%.

Regarding ^64Zn L-Aspartate, the GFAP in blood result in series [2] (FIG. 1A, blood) was “significant reduction”. Besides, the “GFAP in the brain and periphery” value in series [2] (FIG. 1B, brain and periphery) was “significant reduction”. The CD206 expression entry in series [3] is “reduction”. Besides, in series [4], the “absolute number of circulating leukocytes” value is given as “normalization”. In addition, in series [5], the “oxidative stress as indicated by metabolic characteristics of microglia/macrophages” value is “significantly reduced oxidative stress”. The “reactive oxygen species in microglia” value in series [6] was “reduction”. Moreover, the “inflammation as evidenced by astroglia” value in series [7] is on record as “lowered the inflammation significantly”.

(Values after US20250375475A1 (priority 2024, published 2025).)
